{"source": "patent US8415334B2", "about": "“Method of combating infection” (Morvus Technology Ltd., priority 2005, dated 2013)", "key": {"T. colubriformis": {"test_system": "T. colubriformis", "experiment": "Integrated in vitro screening, T. colubriformis", "assay_type": "cell-based", "details": "for IC50: Trichostrongylus colubriformis, read-out: T. colubriformis, IC50"}, "P. falciparum (Ghana)": {"test_system": "P. falciparum (Ghana)", "experiment": "Integrated in vitro screening, P. falciparum (Ghana)", "assay_type": "cell-based", "details": "Plasmodium falciparum; for IC50: read-out: P. falciparum (Ghana), IC50"}, "T. cruzi (tulahuen CL2)": {"test_system": "T. cruzi (tulahuen CL2)", "experiment": "microbe, parasite or virus in culture", "details": "Trypanosoma cruzi, L6, read-out: T. cruzi (tulahuen CL2) IC50", "description": "The Trypanosoma cruzi (MHOM/CL/00/Tulahuen) transfected with β-galactosidase (Lac Z) gene, was used (Buckner et al (1996) Antimicrobial Agents and Chemotherapy 40(11), 2592-2597. The strain was maintained on an L-6 (rat skeletal myoblast cell line obtained from European Collection of Animal Cell Cultures (ECACC, Salisbury, UK)) cell-layer in RPMI 1640 w/o phenol red medium supplemented with 10% heat inactivated fetal calf serum. All cultures and assays were conducted at 37° C. under an atmosphere of 5% CO2 in air.\nFor the assays, the compound was further diluted to the appropriate concentration using complete medium.\nAssays were performed in sterile 96-well microliter plates, each well containing 100 μl medium with 2×10^3 L-6 cells. After 24 hours 50 μl of a trypanosome suspension containing 5×10^3 trypomastigote bloodstream forms from culture was added to the wells. 48 hours later the medium was removed from the wells and replaced by 100 μl fresh medium with or without a serial drug dilution. […] Nifurtimox was used as the reference drug.\nThe compounds were tested in triplicate at 4 concentrations (30-10-3-1 μg/ml). Nifurtimox was included as the reference drug.\nThe same protocol was used and the IC50s determined using an extended dose range adjusted as appropriate."}, "L. donovani HU3": {"test_system": "L. donovani HU3", "experiment": "In vivo activity against L. donovani HU3 in mice (liver parasite load, LDU)", "design": "species or system Leishmania donovani", "details": "for ED50: Leishmania donovani", "experimental": "(§1) The infection and treatment of the animals was performed as described by Croft and Yardley and references there in (Croft & Yardley (1999) Animal models of visceral leishmaniasis. In Handbook of Animal Models of Infection, Zak, O. (ed) pp 783-787, Academic Press, London). […] The liver was removed from freshly sacrificed animals and weighed. Smears were then prepared from the livers on microscope slides and fixed with methanol and stained with Giemsa stain. The number of parasites per 500 liver cells was determined microscopically for each experimental animal. This figure is multiplied by total liver weight (mg) and this figure (the Leishman-Donovan unit (LDU)) is used as the basis for calculating the difference in parasite load between treated and untreated animals (Croft & Yardley, 1999 supra).\n(§2) Stibogluconate at its MTD (15 mg/kg×5 SC) was used as the control compound for these experiments."}, "T. b. brucei": {"test_system": "T. b. brucei", "experiment": "Integrated in vitro screening, T. b. brucei", "assay_type": "cell-based", "details": "Trypanosoma brucei, read-out: T. b. brucei, IC50"}, "[1]": {"experiment": "Cytotoxicity assays against a range of human cell lines", "assay_type": "cell-based", "details": "range of human cell lines (not named)"}, "[2]": {"details": "mouse, in vivo", "experimental": "as §1, §2"}, "T cruzi [3]": {"test_system": "T cruzi", "experiment": "In vivo activity against T. cruzi in BALB/c mice (blood parasites, survival)", "design": "species or system Trypanosoma cruzi", "details": "for # of type of field (blood parasites per fields): individual mice"}, "T cruzi [4]": {"test_system": "T cruzi", "experiment": "In vivo activity against T. cruzi in BALB/c mice (blood parasites, survival)", "design": "species or system Trypanosoma cruzi", "details": "for # of type of field (blood parasites per fields): 0.3 mg/kg i.p. x5, individual mice", "experimental": "At a dose of 0.3 mg/kg (IP×5, daily) all the mice survived for the 50 days before the experiment was terminated."}, "L. infantum": {"test_system": "L. infantum", "experiment": "In vitro screening, Leishmania in mouse peritoneal macrophages", "assay_type": "cell-based", "details": "Peritoneal macrophage", "description": "One strain of Leishmania spp. (Leishmania donovani MHOM/ET/67/L82, also known as LV9,HU3) was used. The strain is maintained in the Syrian Hamster (Mesocricetus auratus). Amastigotes were collected from the spleen of an infected hamster and spleen parasite burden was assessed using the Stauber technique.\nPrimary peritoneal mouse (CD1) macrophages were collected 1 or 2 days after a macrophage production stimulation with an i.p. injection of 2 ml 2% soluble starch. All cultures and assays were conducted at 37° C. under an atmosphere of 5% CO2.\nThe stock was pre-diluted to 60 μg/ml in RPMI 1640+10% heat inactivated fetal calf serum. Assays were performed in sterile 16-well tissue culture slides, each well containing 50 μl of the compound dilutions together with 100 μl of macrophage/parasite inoculum (4×10^5 macrophages/ml and 4×10^6 parasites/ml). The inoculum was prepared in RPMI-1640 medium, supplemented with 10% heat inactivated fetal calf serum. […] After 5 days of incubation, parasite growth was microscopically assessed after staining the cells with a 10% Giemsa solution. The level of infection/well was evaluated by counting the number of infected macrophages per 100 macrophages. The results expressed as % reduction in parasite burden compared to control wells, were transferred into a graphic programme (EXCEL), sigmoidal inhibitions curves determined and IC50 values calculated. […]"}}, "note": "Where “and” joins values, the source holds several entries; their conditions need not be identical. Equal values may be shown once. Read-outs that look alike come from different tables or passages of the source.", "data": [{"smiles": "CCCSc1ccc2nc(NC(=O)OC)[nH]c2c1", "note": "[Albendazole]", "values": [{"measurement": "IC50", "setting": "T. colubriformis", "result": 2, "unit": "nM"}]}, {"smiles": "CCN(CC)CCCC(C)Nc1ccnc2cc(Cl)ccc12", "note": "(centres unmarked) [Chloroquine]", "values": [{"measurement": "IC50", "setting": "P. falciparum (Ghana)", "result": 18, "unit": "nM"}]}, {"smiles": "CC1CS(=O)(=O)CCN1/N=C/c1ccc([N+](=O)[O-])o1", "note": "(centres unmarked) [Nifurtimox]", "values": [{"measurement": "IC50", "setting": "T. cruzi (tulahuen CL2)", "result": 450, "unit": "nM"}]}, {"smiles": "O.O.O.O.O.O.O.O.O.O=C([O-])[C@@H]1[O][Sb]2([O-])([O][Sb]34([OH])[O][C@H]([C@H](O)CO)[C@H]([O]3)[C@H](C(=O)[O-])[O]4)[O][C@H]([C@H](O)CO)[C@@H]1[O]2.[Na+].[Na+].[Na+]", "note": "[Stibogluconate, sodium stibogluconate]", "values": [{"measurement": "effect on parasite counts", "setting": "L. donovani HU3; SCID mouse model, MTD 15 mg/kg×5 SC", "result": "little effect"}]}, {"smiles": "Cc1ccc(C(=O)Nc2ccc(S(=O)(=O)O)c3cc(S(=O)(=O)O)cc(S(=O)(=O)O)c23)cc1NC(=O)c1cccc(NC(=O)Nc2cccc(C(=O)Nc3cc(C(=O)Nc4ccc(S(=O)(=O)O)c5cc(S(=O)(=O)O)cc(S(=O)(=O)O)c45)ccc3C)c2)c1", "note": "[Suramin]", "values": [{"measurement": "IC50", "setting": "T. b. brucei", "result": 45, "unit": "nM"}]}, {"smiles": "NC(=O)c1cc(N2CC2)c([N+](=O)[O-])cc1[N+](=O)[O-]", "note": "[Tretazicar, 5-(aziridin-1-yl)-2,4-dinitrobenzamide]", "values": [{"measurement": "IC50", "setting": "T. cruzi (tulahuen CL2)", "result": 3, "unit": "nM"}, {"measurement": "activity against tested strains", "setting": "P. falciparum (Ghana); in words", "result": "No activity"}, {"measurement": "IC50", "setting": "P. falciparum (Ghana); in vitro", "result": "> 32000", "unit": "nM"}, {"measurement": "ED90", "setting": "L. donovani HU3; BALB/c mice, IP × 5 Daily", "result": 1.41, "unit": "mg/kg"}, {"measurement": "ED90", "setting": "L. donovani HU3; BALB/c mice, IV × 3 Daily", "result": 1.15, "unit": "mg/kg"}, {"measurement": "ED50", "setting": "L. donovani HU3; ip, BALB/c mice, IP × 5 Daily", "result": 0.23, "unit": "mg/kg"}, {"measurement": "ED50", "setting": "L. donovani HU3; iv, BALB/c mice, IV × 3 Daily", "result": 0.19, "unit": "mg/kg"}, {"measurement": "ED50", "setting": "L. donovani HU3; iv, SCID mice, IV × 5 Daily", "result": 0.18, "unit": "mg/kg"}, {"measurement": "ED90", "setting": "L. donovani HU3; SCID mice, IV × 5 Daily", "result": 0.35, "unit": "mg/kg"}, {"measurement": "IC50", "setting": "[1]", "result": "> 50000", "unit": "nM"}, {"measurement": "drug related toxicity, as measured by body weight loss", "setting": "[2]", "result": "No drug related toxicity"}, {"measurement": "dose at which significant toxicity was observed", "setting": "[2]; 5 days", "result": 10, "unit": "mg/kg×5"}, {"measurement": "# of type of field (blood parasites per fields)", "setting": "T cruzi [3]; 1 mg/kg i.p. x5, day 6 post infection", "result": "0/20 (3×) and 1/20 (2×)"}, {"measurement": "# of type of field (blood parasites per fields)", "setting": "T cruzi [3]; 1 mg/kg i.p. x5, day 13 post infection", "result": "0/10 (2×) and 3/10"}, {"measurement": "parasites in the blood", "setting": "T cruzi [3]; 3.0 mg/kg (IP×5, daily)", "result": "cleared all the parasites from the blood"}, {"measurement": "# of type of field (blood parasites per fields)", "setting": "T cruzi [3]; 3 mg/kg i.p. x5, day 6 post infection", "result": "5/20 and 12/20 and 4/20 and 1/20 (2×)"}, {"measurement": "# of type of field (blood parasites per fields)", "setting": "T cruzi [3]; 3 mg/kg i.p. x5, day 13 post infection", "result": "0/10"}, {"measurement": "# of type of field (blood parasites per fields)", "setting": "T cruzi [3]; 10 mg/kg i.p. x5, day 6 post infection", "result": "0/20 (3×) and 1/20 and 2/20"}, {"measurement": "# of type of field (blood parasites per fields)", "setting": "T cruzi [3]; 10 mg/kg i.p. x5, day 13 post infection", "result": "0/10"}, {"measurement": "activity against tested strains", "setting": "T. colubriformis; T. colubriformis, in words", "result": "No activity"}, {"measurement": "IC50", "setting": "T. colubriformis; in vitro", "result": "> 32000", "unit": "nM"}, {"measurement": "survival of infected mice", "setting": "T cruzi [4]; 0.3 mg/kg (IP×5, daily), BALB/c mice, experiment terminated at 50 days", "result": "≥ 50", "unit": "days"}, {"measurement": "parasites in the blood", "setting": "T cruzi [4]; 0.3 mg/kg (IP×5, daily), at 13 days", "result": "parasites could still be detected in the blood"}, {"measurement": "# of type of field (blood parasites per fields)", "setting": "T cruzi [4]; day 6 post infection", "result": "2/20 and 0/20 (4×)"}, {"measurement": "# of type of field (blood parasites per fields)", "setting": "T cruzi [4]; day 13 post infection", "result": "16/5 and 2/5 (2×) and 7/5 and 6/5"}, {"measurement": "IC50", "setting": "L. infantum", "result": 80, "unit": "nM"}, {"measurement": "IC50", "setting": "T. b. brucei; in vitro", "result": 5000, "unit": "nM"}]}, {"smiles": "O=C(Cn1ccnc1[N+](=O)[O-])NCc1ccccc1", "note": "[benznidazole]", "values": [{"measurement": "parasites in the blood, compared with tretazicar 3.0 mg/kg", "setting": "T cruzi [3]; 45 mg/kg (p.o.×5 daily)", "result": "equivalent effect"}, {"measurement": "# of type of field (blood parasites per fields)", "setting": "T cruzi [3]; 45 mg/kg p.o. x5, day 6 post infection", "result": "0/20 and 3/20 (2×) and 4/20 and 1/20"}, {"measurement": "# of type of field (blood parasites per fields)", "setting": "T cruzi [3]; 45 mg/kg p.o. x5, day 13 post infection", "result": "0/10"}]}]}
